The values below come from patent publication US20240116910A1, “Heterocycles as WIP1 Inhibitors” (PMV Pharmaceuticals, Inc., priority 2022, published 2024).

As a reminder, the pIC50 is −log10 of the IC50, conventionally taken in molar units.

Experiment [1] addresses recombinant His-tag Wip1 full length protein (amino acids #1-605) (Homo sapiens (Human), UniProt O15297). Put plainly: Wip1 full length phosphatase enzyme FDP assay. The experiment is classed as biochemical. Conditions: fluorescein diphosphate (FDP) substrate, RT 2 hours, fluorescence Ex485/Em535. How it is done:
The Human Wip1 (2-420, aa 2-420) or Wip1 full length (aa 1-605) DNA sequence was codon optimized and synthesized by Genscript for insect cell expression. The open reading frame of Wip1(2-420) with a N-terminal-His6 affinity tag followed by a TEV cleavage site was subcloned sites into the pFastBac1 expression vector. The recombinant bacmid DNA was transfected in Sf9 insect cells for baculovirus production. After 72 hours infection, the Sf9 cells were harvested by centrifugation and resuspended in lysis buffer containing 50 mM Tris/HCl, pH 8.0, 500 mM NaCl, 20% glycerol, Benzonase 0.5% CHAPS and Roche cOmplete™ EDTA free protease inhibitors. Cells were disrupted with microfluidizer and the debris was removed by centrifugation at 185,000 g for 1 hour. The supernatant was subjected to HisTrap FF for affinity purification. Proteins were eluted with a linear gradient of 0-500 mM imidazole in HisTrap buffer containing 50 mM Tris/HCl, pH 8.0, 500 mM NaCl and 20% glycerol, 0.05% CHAPS. The eluted protein was dialyzed against dialysis buffer (20 mM MES, 100 mM NaCl, 20% glycerol, 0.5 mM TCEP, 0.05% CHAPS) followed purification via HiTrap SP HP column. The protein was eluted with a gradient of 100 mM-2 M NaCl in dialysis buffer. His6-[…] was finally concentrated and loaded onto a size-exclusion column (NiLoad 16/600 Superdex 200 pg, GE Healthcare) pre-equilibrated with 50 mM MOPS (pH 7.5), 200 mM NaCl, 20% glycerol, 1 mM TCEP, 0.05% CHAPS and 0.1 mM EGTA. The peak fractions containing purified Nis6-Wip1(2-420) were pooled and concentrated to 1.0 mg/mL and flash frozen at −80° C.
Wip1 Length and Wip1(2-420) Phosphatase Enzyme FDP Assays.
Test compounds (252 mM stock in DMSO) were diluted 3 folds in series in DMSO and 1.2 μl per well were added into 384-well polypropylene black plates (Nunc). Twelve μl per well of Assay Buffer (100 mM NaCl, 50 mM MOPS, pH 7.5, 0.8 mM CHAPS, 0.1 mM EGTA, 30 mM MgCl2, 0.3 mM TCEP, 0.2 mg/mL BSA) was added followed by […] per well of 50.4 nM recombinant His-tag Wip1 full length protein (amino acids #1-605) or recombinant His-tag Wip1(2-420) protein (amino acids #2-420) in Assay Buffer and the plate was incubated at RT (22° C.) for 5 min. Ten mM of fluorescein diphosphate (FDP) in DMSO was diluted to […] in Assay Buffer and […] per well was added to the plate and incubated at RT (22° C.) for 2 hours. […] per well of 64.1 mM EDTA in water were added to stop the enzyme reaction. The plate was centrifuged at 1,200 rpm (Eppendorf 5810R Plate centrifuge) for 1 minute and fluorescence intensity (Ex485/Em535) was measured on Perkin Elmer Victor Reader. EC50 values were calculated using either Prism (GraphPad) or ActivityBase software (IDBS), The IC50 results are provided in Table M.

For experiment [2], the target named is recombinant His-tag Wip1(2-420) protein (amino acids #2-420) (Homo sapiens (Human), UniProt O15297). In words: Wip1(2-420) phosphatase enzyme FDP assay. Format: biochemical. Conditions: fluorescein diphosphate (FDP) substrate, RT 2 hours, fluorescence Ex485/Em535; read-out: WIP1 (Truncated 2-420) FDP Assay: IC50.
Sequence of recombinant His-tag Wip1(2-420) protein (amino acids #2-420) (O15297 2-420): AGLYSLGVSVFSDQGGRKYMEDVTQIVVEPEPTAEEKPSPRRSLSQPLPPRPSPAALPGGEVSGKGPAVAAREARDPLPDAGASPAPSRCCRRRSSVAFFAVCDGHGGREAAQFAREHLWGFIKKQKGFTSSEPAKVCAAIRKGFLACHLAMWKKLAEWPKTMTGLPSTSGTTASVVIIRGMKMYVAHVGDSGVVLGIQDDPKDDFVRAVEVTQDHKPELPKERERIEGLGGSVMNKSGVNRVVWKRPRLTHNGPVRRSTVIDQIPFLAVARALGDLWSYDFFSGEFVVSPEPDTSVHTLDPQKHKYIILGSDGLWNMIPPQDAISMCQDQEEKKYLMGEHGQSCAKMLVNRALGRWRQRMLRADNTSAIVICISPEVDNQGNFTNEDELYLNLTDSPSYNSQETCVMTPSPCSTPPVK

pIC50: −log10 of the molar value.

Sequence of recombinant His-tag Wip1 full length protein (amino acids #1-605) (O15297 whole entry, the tested form may be a part): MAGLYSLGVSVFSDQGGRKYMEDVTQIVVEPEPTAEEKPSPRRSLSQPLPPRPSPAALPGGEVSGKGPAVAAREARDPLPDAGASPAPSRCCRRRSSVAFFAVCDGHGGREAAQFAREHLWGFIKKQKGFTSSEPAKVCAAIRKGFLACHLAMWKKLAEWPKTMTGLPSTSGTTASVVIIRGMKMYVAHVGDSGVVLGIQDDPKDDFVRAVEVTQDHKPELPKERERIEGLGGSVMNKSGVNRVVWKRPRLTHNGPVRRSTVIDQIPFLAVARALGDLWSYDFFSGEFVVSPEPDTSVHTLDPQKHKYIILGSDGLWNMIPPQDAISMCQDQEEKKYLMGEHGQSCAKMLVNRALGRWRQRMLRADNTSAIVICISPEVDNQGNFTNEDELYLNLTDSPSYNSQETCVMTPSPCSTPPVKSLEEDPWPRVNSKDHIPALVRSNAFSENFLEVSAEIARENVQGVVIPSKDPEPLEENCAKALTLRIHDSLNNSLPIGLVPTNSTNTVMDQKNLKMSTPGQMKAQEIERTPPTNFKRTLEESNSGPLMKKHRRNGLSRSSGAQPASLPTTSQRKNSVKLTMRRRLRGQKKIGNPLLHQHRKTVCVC

Regarding `CCc1ncc(Cl)cc1N[C@@H](C)c1ccc(C(=O)N[C@@H](CC2CCCC2)C(=O)NC2CC2)s1` [Compound 78, (2S)-2-({5-[(1S)-1-[(5-chloro-2-ethylpyridin-3-yl)amino]ethyl]thiophen-2-yl}formamido)-3-cyclopentyl-N-cyclopropylpropanamide], the pIC50 in experiment [1] is 8.15; in experiment [2] it was 8.22.

Consider `Cc1ncc(Cl)cc1N[C@@H](C)c1ccc(C(=O)N[C@@H](CC2CCCC2)C(=O)NC2COC2)s1` [Compound 27, (2S)-2-({5-[(1S)-1-[(5-chloro-2-methylpyridin-3-yl)amino]ethyl]thiophen-2-yl}formamido)-3-cyclopentyl-N-(oxetan-3-yl)propanamide], for which the figures for the pIC50 in experiment [1] and in experiment [2] were 8.00 and 8.22, respectively.

Turning to `C[C@@H](Nc1cc(Cl)cnc1C1CC1)c1ccc(C(=O)N[C@@H](CC2CCCC2)C(=O)NC2CC2)s1` [Compound 71, (2S)-2-({5-[(1R)-1-[(5-chloro-2-cyclopropylpyridin-3-yl)amino]ethyl]thiophen-2-yl}formamido)-3-cyclopentyl-N-cyclopropylpropanamide], the pIC50 was 6.67 in experiment [1] and 6.90 in experiment [2].

Take `Cc1ncc(Cl)cc1N[C@@H](C)c1ccc(C(=O)N[C@@H](CC2CCCC2)C(=O)NC23CC(F)(C2)C3)s1` [Compound 16, (2S)-2-({5-[(1S)-1-[(5-chloro-2-methylpyridin-3-yl)amino]ethyl]thiophen-2-yl}formamido)-3-cyclopentyl-N-{3-fluorobicyclo[1.1.1]pentan-1-yl}propanamide]: the pIC50 in experiment [1] is 8.00; in experiment [2], 8.15.

Take `CC(c1ccc(C(=O)N[C@@H](CC2CCCC2)C(=O)NC2CC2)s1)N1CCc2cc(F)c(Cl)cc21` (stereo partly drawn) [Compound 46, (2S)-2-({5-[1-(6-chloro-5-fluoro-2,3-dihydro-1H-indol-1-yl)ethyl]thiophen-2-yl}formamido)-3-cyclopentyl-N-cyclopropylpropanamide]: the pIC50 is 7.64 in experiment [1] and 7.80 in experiment [2].

Turning to `CC[C@H](Nc1cc(Cl)cnc1C)c1ccc(C(=O)N[C@@H](CC2CCCC2)C(=O)NC23CC(C2)C3)s1` [Compound 68, (2S)-N-{bicyclo[1.1.1]pentan-1-yl}-2-({5-[(1S)-1-[(5-chloro-2-methylpyridin-3-yl)amino]propyl]thiophen-2-yl}formamido)-3-cyclopentylpropanamide], the pIC50 in experiment [1] is 8.10; in experiment [2] it was 8.22.

For `CNC(=O)C12CC(NC(=O)[C@H](CC3CCCC3)NC(=O)c3ccc([C@H](C)Nc4cc(Cl)cnc4C)s3)(C1)C2` [Compound 44, 3-[(2S)-2-({5-[(1S)-1-[(5-chloro-2-methylpyridin-3-yl)amino]ethyl]thiophen-2-yl}formamido)-3-cyclopentylpropanamido]-N-methylbicyclo[1.1.1]pentane-1-carboxamide], the pIC50 was 7.85 in experiment [1] and 7.92 in experiment [2].

On to `Cc1ncc(Cl)cc1N[C@@H](C)c1ccc(C(=O)N[C@@H](CC2CCCC2)C(=O)NC2(C(F)(F)F)CC2)s1` [Compound 42, (2S)-2-({5-[(1S)-1-[(5-chloro-2-methylpyridin-3-yl)amino]ethyl]thiophen-2-yl}formamido)-3-cyclopentyl-N-[1-(trifluoromethyl)cyclopropyl]propanamide], for which the pIC50 in experiment [1] was 7.82; in experiment [2], 7.92.

For the compound `C[C@H](Nc1cccc(Cl)c1)c1ccc(C(=O)N[C@@H](CC2CCCC2)C(=O)NC2CC2)s1` [Compound 2, 5-[(1S)-1-(3-chloroanilino)ethyl]-N-[(1S)-1-(cyclopentylmethyl)-2-(cyclopropylamino)-2-oxo-ethyl]thiophene-2-carboxamide], the pIC50 in experiment [1] is 6.93; in experiment [2], 6.63.

On to `Cc1ncc(Cl)cc1NC(C)(C)c1ccc(C(=O)N[C@@H](CC2CCCC2)C(=O)NC23CC(C2)C3)s1` [Compound 54, (2S)-N-{bicyclo[1.1.1]pentan-1-yl}-2-[(5-{2-[(5-chloro-2-methylpyridin-3-yl)amino]propan-2-yl}thiophen-2-yl)formamido]-3-cyclopentylpropanamide], for which the values for the pIC50 in experiment [1] and in experiment [2] were 7.96 and 8.10, respectively.

As to `C[C@@H](c1ccc(C(=O)N[C@@H](CC2CCCC2)C(=O)NC2CC2)s1)N1CCc2cc(F)c(Cl)cc21` [Compound 56, (2S)-2-({5-[(1S)-1-(6-chloro-5-fluoro-2,3-dihydro-1H-indol-1-yl)ethyl]thiophen-2-yl}formamido)-3-cyclopentyl-N-cyclopropylpropanamide], the negative-log IC50 (pIC50) was 7.30 in experiment [1] and 7.41 in experiment [2].

`Cc1ncc(Cl)cc1N[C@@H](C)c1ccc(C(=O)N[C@@H](CC2CCCC2)C(=O)NC2CC2)s1` [Compound 8, 5-[(1S)-1-[(5-chloro-2-methyl-3-pyridyl)amino]ethyl]-N-[(1S)-1-(cyclopentylmethyl)-2-(cyclopropylamino)-2-oxo-ethyl]thiophene-2-carboxamide]: the pIC50 was 7.96 in experiment [1] and 8.10 in experiment [2].

For `Cc1ncc(Cl)cc1N[C@@H](C)c1ccc(C(=O)N[C@@H](CC2CCCC2)C(=O)NC2CCC(F)(F)C2)s1` (stereo partly drawn) [Compound 26, (2S)-2-({5-[(1S)-1-[(5-chloro-2-methylpyridin-3-yl)amino]ethyl]thiophen-2-yl}formamido)-3-cyclopentyl-N-(3,3-difluorocyclopentyl)propanamide], the pIC50 in experiment [1] was 8.05; in experiment [2], 8.15.

Turning to `CC(Nc1ccc(F)c(Cl)c1)c1ccc(C(=O)N[C@@H](CC2CCCC2)C(=O)NC2CC2)s1` (stereo partly drawn) [Compound 3, 5-[1-(3-chloro-4-fluoro-anilino)ethyl]-N-[(1S)-1-(cyclopentylmethyl)-2-(cyclopropylamino)-2-oxo-ethyl]thiophene-2-carboxamide], the pIC50 was 7.55 in experiment [1] and 7.22 in experiment [2].

Regarding `COC(=O)C12CC(NC(=O)[C@H](CC3CCCC3)NC(=O)c3ccc([C@H](C)Nc4cc(Cl)cnc4C)s3)(C1)C2` [Compound 19, methyl 3-[(2S)-2-({5-[(1S)-1-[(5-chloro-2-methylpyridin-3-yl)amino]ethyl]thiophen-2-yl}formamido)-3-cyclopentylpropanamido]bicyclo[1.1.1]pentane-1-carboxylate], the pIC50 in experiment [1] was 7.89; in experiment [2], 7.96.

As for `Cc1ncc(Cl)cc1N[C@@H](C)c1ncc(C(=O)N[C@@H](CC2CCCC2)C(=O)NC23CC(C2)C3)s1` [Compound 278, (2S)-N-{bicyclo[1.1.1]pentan-1-yl}-2-({2-[(1S)-1-[(5-chloro-2-methylpyridin-3-yl)amino]ethyl]-1,3-thiazol-5-yl}formamido)-3-cyclopentylpropanamide], the pIC50 in experiment [1] is 7.52; in experiment [2] it was 7.72.

In the case of `Cc1ncc(Cl)cc1N[C@@H](C)c1ccc(C(=O)N[C@@H](CC2CCCC2)C(=O)NC23CC(C(N)=O)(C2)C3)s1` [Compound 45, 3-[(2S)-2-({5-[(1S)-1-[(5-chloro-2-methylpyridin-3-yl)amino]ethyl]thiophen-2-yl}formamido)-3-cyclopentylpropanamido]bicyclo[1.1.1]pentane-1-carboxamide], the pIC50 was 8.05 in experiment [1] and 8.15 in experiment [2].

As for `COc1cc(NC(=O)[C@H](CC2CCCC2)NC(=O)c2ccc([C@H](C)Nc3cc(Cl)cnc3C)s2)ccn1` [Compound 156, (2S)-2-({5-[(1S)-1-[(5-chloro-2-methylpyridin-3-yl)amino]ethyl]thiophen-2-yl}formamido)-3-cyclopentyl-N-(2-methoxypyridin-4-yl)propanamide], the pIC50 is 8.05 in experiment [1] and 8.40 in experiment [2].
